Data from patent publication US7872043B2, “Use of furan alkyls for a cellulite cosmetic treatment” (Laboratories Expanscience, priority 2004, dated 2011).

Assays:
[1] = system: mice fattened on a high fat/high sucrose diet (HF/HS); test: Hepatic metabolism: transaminases and alkaline phosphatase (liver toxicity); format: in vivo; conditions: TZD and AV102 groups; considered very moderate, does not appear to reflect liver toxicity
[2] = system: mice fattened on a high fat/high sucrose diet (HF/HS); test: Blood glucose and insulin analysis; format: in vivo; conditions: TZD 10 mg/kg/day
Protocol: (§1) We used adult mice (aged 6 weeks) of masculine gender fattened on a high fat/high sucrose diet (HF/HS). Feeding with the HF/HS diet began on mice aged 6 weeks and continued throughout the period of the study. The study was conducted along 2 axes: • prevention: the product was administered as soon as feeding began with the HF/HS diet; • management (curative): the product was administered 12 weeks after the start of the HF/HS diet. Total treatment time (preventive and curative): 23 weeks.
(§2) Each experimental group comprised 10 mice.
(§3) Subsequently the following were analysed: lipoprotein profile (by size exclusion chromatography); apolipoportein A1; lipid composition of the liver (liver triglycerides, cholesterol and free fatty acids); histological analysis of the liver and adipose tissue; staining of accumulated lipids in the liver.

[3] = system: ACO (target PPARα); test: Liver mRNA expression, real-time Q-RT-PCR: ACO; format: in vivo; conditions: TZD; AV102 (0.25%); 5 mice per group
Protocol: (§4) In the liver, the mRNA expressions of 8 genes were determined in 5 mice of each group using real-time Q-RT-PCR analysis.

[4] = system: mice fattened on a high fat/high sucrose diet (HF/HS); test: Intra Peritoneal Insulin Sensitive Test (IPIST); format: in vivo; conditions: preventive; TZD 10 mg/kg/day; (3 W***)
From the text: Diabetics suffer from an increase in insulin resistance which leads to hyperglycaemia.

[5] = system: PEPCK (target PPARγ); test: Liver mRNA expression, real-time Q-RT-PCR: PEPCK; format: in vivo, mice; conditions: TZD; AV102 (0.25%)
Protocol: as §4

[6] = system: mice fattened on a high fat/high sucrose diet (HF/HS); test: Blood parameters: plasma lipids (total cholesterol, LDL, HDL, TG, FFA); format: in vivo; conditions: TZD 10 mg/kg/day; for HDL / Total cholesterol: (3 W***)
Protocol: as §1, §2, §3
(§5) The different cholesterol blood levels and different fractions were analysed using a HPLC method.

[7] = system: mice fattened on a high fat/high sucrose diet (HF/HS); test: Plasma lipoprotein profile (size exclusion chromatography); format: in vivo; conditions: TZD
Protocol: as §1, §2, §3, §5

[8] = system: PGC-1 (mitochondria biogenesis); test: Muscle/BAT mRNA expression: PGC-1; format: in vivo, mice; conditions: TZD, AV102 (0.25%)
Protocol: In the brown adipose tissue (BAT) and in the muscles, the mRNA expression of 3 genes was determined in 5 mice of each group by real-time Q-RTR-PCR analysis.

[9] = system: ME, FAS, ACC (fatty acid synthesis); test: Liver mRNA expression, real-time Q-RT-PCR: ME, FAS, ACC; format: in vivo, mice; conditions: TZD; AV102 (0.25%)
Protocol: as §4

[10] = system: mice fattened on a high fat/high sucrose diet (HF/HS); test: Food intake and weight gain of mice on HF/HS diet; format: in vivo; conditions: curative; TZD 10 mg/kg/dy
Protocol: as §1, §2

[11] = system: CYP7A1; test: Liver mRNA expression, real-time Q-RT-PCR: CYP7A1; format: in vivo, mice; conditions: TZD; AV102 (0.25%)
Protocol: as §4

CN(CCOc1ccc(CC2SC(=O)NC2=O)cc1)c1ccccn1 (stereo not drawn) [TZD, Rosiglitazone]
Plasma ALP [1]: increase
GLUCOSE (blood) ([2]; curative, (3 W**)): dropped considerably and ↓↓
GLUCOSE (blood) ([2]; preventive): ↓
INSULIN (blood) ([2]; preventive): ↓
ACO (target PPARα) mRNA in the liver [3]: ↑
IPIST (insulin sensitivity test) [4]: ↓↓
PEPCK (target PPARγ) mRNA in the liver [5]: ↑
LDL ([6]; curative): reduction
TG (Triglycerides) ([6]; curative): No change
HDL ([6]; curative): reduction
Total cholesterol ([6]; curative): reduction
LDL ([6]; preventive): downward trend
TG (Triglycerides) ([6]; preventive): significantly reduced
HDL ([6]; preventive): significant reduction
Total cholesterol ([6]; preventive): significant reduction
Fractions of HDL and VLDL cholesterol (lipoprotein profiles) ([7]; curative, after 3 weeks' treatment): reduction
HDL, LDL and VLDL cholesterol fractions (plasma lipoprotein profiles) ([7]; preventive, weeks 8 and 15): reduction
PGC-1 (mitochondria biogenesis) mRNA in muscle/BAT [8]: ↑ (muscle)
ME, FAS, ACC (fatty acid synthesis) mRNA in the liver [9]: ↑↑
Mouse wt. [10]: did not cause the overweight mice to lose weight
CYP7A1 (conversion oxysterol into biliary acids) mRNA in the liver [11]: ↑↑
